# Values of other authors as cited in patent publication US20030036641A1, “Methods for homology-driven reassembly of nucleic acid sequences” (priority 2001, published 2003).
# System: E. coli TG1
# Conditions: E. coli TG1 containing pGJ103 (pI258 ars operon in pUC19), LB ampicillin agar plates
substance,measurement,value
sodium arsenate,MIC (minimum inhibitory concentration),4 µg/mL
